This is an account of results in patent US20040077720A1, “Inhibition of antibody production employing perfluorooctanoic acid or derivatives thereof” (priority 2002, published 2004).

Entries after “also recorded” stand apart in the source; their conditions may differ.

In assay [1] the test system is MRL/MpJ-Tnfrsf6^1pr-Mice. Description: Treatment of MRL/MpJ-Tnfrsf6 lpr mice (spontaneous SLE-like autoimmune syndrome); clinical observation, urine, autopsy. It counts as in vivo. An excerpt:
As the experimental animal model for studies of inhibition of disease development and the underlying mechanism(s), Applicants have employed MRL-Tnfrs6/1 pr mice, which spontaneously develop high levels of a wide range of antibodies and an SLE-like syndrome, including severe lymphoadrenopathy. The MRL-mouse strain is known to develop a severe autoimmune disease syndrome. In fact, it is known to develop the most severe disease state. Highs levels of circulating autoantibodies, immunocomplexes mediated glomerulonephritis, arthritis and vasculitis are observed. The mice also develop a heavy proliferation of lymph nodes.
(§1) The presence of circulating immunocomplexes is analyzed indirectly by continuous monitoring of the levels of protein, hemoglobin and erythrocytes in the urine of these animals, the quantities of which are directly related to the severity of the immunocomplex-mediated glomerulonephritis which develops. […] The effectiveness of a low dose of the substance and 100% reproducibility argue for a direct inhibition of the mechanism(s) underlying development of the disease.
The symptoms which these mice develop include deterioration of joints and consequent motor difficulties, kidney damage with resulting uremia (retention of fluid) and extreme lymphoadenopathy. This lymphoadenopathy arises from defects in the FAS antigen gene resulting from the lymphoproliferation (1 pr) mutation in MRL-mice. In the final stages of their disease these animals also develop dermal vasculitis. 100% of these mice develop these symptoms.
The degree of renal damage can be monitored on the basis of the level of protein, erythrocytes, hemoglobin and hyalin cylinders in the urine. Lymphocyte proliferation can be assessed from the growth of lymph nodes in the shoulders and groin, as well as along the aorta. Blood and tissue samples are collected for analysis and histopathological examination.
Animal Model: MRL/MpJ-Tnfrsf6^1pr-Mice
This strain develops spontaneous systemic lupus erythematosus-like autoimmune syndrome at or about 8 weeks of age. The syndrome is characterized by massive lymphadenopathy, immune complex glomerulonephritis, arthritis, high level of circulating antibodies, and vasculitis.
Compounds A and B were tested. Compound A was a reference compound and compound B was PFOA. Treatment was initiated at the age of 5 and 8 weeks, respectively. All animals received the respective compounds on a daily basis. A control group of mice without treatment was run in parallel. The following parameters were screened.
2. Investigation of urine sediment.
3. Monitoring of proteinuria.
Parameters followed during the study: 1) Clinical observation; 2) Urine: light microscopy, proteinuria. The following organs were sampled: thymus, lymph nodes, kidney, liver, and spleen. The organs were investigated by histopathology and immunohistopathology.

Assay [2] has as its system thymus and spleen. The assay can be described thus: Laboratory studies: thymus and spleen. Conditions: in vivo. Also on record: species or system rodent. An excerpt: PFOA belongs to a group of chemicals that induce peroxisome proliferation in the liver in rodent. […] These initial observations led to the inventors' discovery that PFOA could interfere with the immune system, and that PFOA could express immunosuppressive properties.

Assay [3] deals with MRL/MpJ-Tnfrsf6^1pr-Mice. Description: Withdrawal study in treated MRL mice. It counts as in vivo. The protocol:
as §1
(§2) By inhibiting antibody production, this substance also prevents the formation of immunocomplexes. These treated animals appear completely normal, without joint deterioration, lymphocyte proliferation, dermal vasculitis or immunocomplex-mediated glomerulonephritis.
In a separate study compound B was withdrawn from mice treated during 23-26 weeks. The mice were followed for up to 39-42 weeks.

In assay [4] the test system is horse erythrocytes. Description: Immunization with horse erythrocytes after treatment; antibody response. It is filed as in vivo. To be noted: mice treated, then immunized with horse erythrocytes.
From the text: as §2

Where [5] appears, read: daily treatment started at age 5 or 8 weeks.
The mark [6] stands for this setting: mouse, in vivo, listed as perfluorooctanoic acid.

Consider `O=C(O)C(F)(F)C(F)(F)C(F)(F)C(F)(F)C(F)(F)C(F)(F)C(F)(F)F` [Compound B, Perfluorooctanoic acid], for which the anasarca entry in assay [1] (at autopsy) is listed as “no anasarca was detected”. In addition, the survival rate result in assay [1] (compared to control group and compound A treated mice) is “clear-cut increase of survival rate”. In addition, in assay [1] (setting [5]), the body weight result is given as “No body weight gain” and the enlarged lymph nodes result was “No”. In assay [1] (mouse, in vivo), the “clinical observation: activity / movement” value was “very active”, the fur entry is “normal fur”, the lymphadenopathy entry is reported as “No lymphadenothapy was observed” and the ulcers entry is “No ulcers were observed”. Moreover, the “signs / symptoms of disease during treatment” value in assay [1] (mouse, in vivo, listed as compound B) is “did not develop any signs of disease”. Further, the “signs / symptoms of disease during treatment” value in assay [1] (setting [6]) was “none of these disease symptoms are observed”. Also, the proteinuria result in assay [1] (urine, daily treatment started at age 5 or 8 weeks) is reported as “No”. In addition, the thymus and spleen entry in assay [2] is “a reduction of thymus and spleen was observed”. Also, the “disease symptoms when treatment is terminated / substance withdrawn” value in assay [3] (setting [6]) is listed as “the animals develop disease symptoms; also recorded: the mice begin to develop typical disease symptoms”. Also, the “time after withdrawal at which proteinuria was observed” value in assay [3] (treated during 23-26 weeks) came to 5 weeks. The weight after withdrawal entry in assay [3] (treated during 23-26 weeks, followed up to 39-42 weeks) is recorded as “an increase in weight was observed”. The “clinical symptoms after withdrawal” value in assay [3] (treated during 23-26 weeks, followed up to the 42 week point) is recorded as “no sign of symptoms were observed”. The “antibody response to foreign antigens” value in assay [4] was “no antibody response”.
